Measurements reported in publication PMC12702354, “Engineered an ultrasmall curcumin oral nanoformulation restores intestinal integrity and gut microbiota dysbiosis” (Materials Today Bio, 2025).
Like-named read-outs stand apart in the source and are kept apart here.

Tests used:
[1] = Stability in SIF (pancreatin + bile salts); assay type: physicochemical; details: 24 h
Procedure: To examine the breakdown of nGM@CUR-UsNF and cGM@CUR-UsNF in SGF and SIF, Fӧrster resonance energy transfer (FRET) analysis was conducted. Formulations co-loaded with HIQ and NR (FRET pairs) were prepared by mixing galactomannan or cGM with HIQ (1 mg/mL) and NR (0.4 mg/mL), followed by sonication 150 W and 25 kHz in an ice-water bath and then filtered using a 0.1 μm membrane. Ultimately, the HIQ/NR@cGM was produced by exposing it to a 253.7 nm UV light at 36 W for 90 min. The control sample of HIQ/NR@GM was also prepared. The PS, PDI, and ZP of the prepared formulations were assessed through dynamic laser scattering. The LE was also determined. The prepared formulations were mixed with SGF or SIF in tubes. […] Fluorescence intensities were captured using a SYNERGY/HTX (BioTek, Germany) with the excitation at 510 nm and emission at 635 nm. The FRET ratio was determined using the formula FRET ratio = INR/(INR + IHIQ), where IHIQ and INR represented the fluorescence intensities of HIQ and NR at 510 nm and 635 nm, respectively, with an excitation wavelength of 450 nm. […] CUR retention was measured using HPLC following the separation of the released drug, while particle size was assessed through DLS analysis. The stability of the polymer was evaluated using gel permeation chromatography and a reducing sugar assay. […]

[2] = Dose determination: body weight and liver weight; assay type: in vivo, C57BL/6 mice; details: for Final body weight / Liver weight / Rel. liver weight: n = 12
Procedure: We first determined the doses of UsNFs and free-CUR in eight-week-old female C57BL/6 mice before systematically evaluating the retention of UsNFs in the GIT and PK of CUR. […] Consequently, 50 mg/kg was identified as the optimal dosage for subsequent in vivo therapeutic assessment of both UsNFs and free-CUR, achieving a balance between efficacy potential, safety, and physiological tolerance.

Caco-2 cell monolayer = test: TEER of Caco-2 cell monolayer; assay type: cell-based, human; details: applied apically 120 min, then removed
Procedure: First, 5 × 10^4 Caco-2 cells/well, as a gastrointestinal epithelium model were cultured in transwell plates (Thermo Fisher, India) with a pore size of 0.4 μm. Once the TEER values attained 500 Ω cm^2, the cell monolayers were utilized for the subsequent experiments. Initially, mucin (10 mg/mL PBS) was introduced into the apical medium to mimic the occurrence of mucus, whereas PBS without mucin was utilized to represent the condition lacking mucus. Subsequently, IF (20 μL, 100 IU/mL) and 200 μL of CUR formulations (1 mg/mL) were introduced into the upper chambers. While incubating in a water bath at 37 °C, samples were taken from the lower chambers for analysis at various time intervals. A portion of the basolateral medium was taken out and examined using RP-HPLC to quantify the CUR content. The Papp of CUR was determined using the method outlined in a previous study. To analyze intracellular uptake, cells were gathered and underwent multiple freeze-thaw cycles prior to being lysed for 60 min. The concentration of CUR taken up by the cells was assessed using HPLC. Additionally, TEER measurements were recorded to evaluate the effect of CUR formulations on the monolayer's integrity. The baseline TEER readings for the Caco-2 cell layer were recorded. The apical media were then substituted with CUR formulations (200 μL). […] The Papp values for CUR were calculated.

[3] = PK study after oral gavage; assay type: in vivo, C57BL/6J mice; details: 50 mg/kg
[4] = tested on: VAN-induced C57BL/6J mouse model; test: VAN-induced intestinal epithelial barrier dysfunction and gut inflammation model; details: 50 mg/kg oral daily, 10 days after VAN
Procedure: This was succeeded by a daily oral administration of 50 mg/kg UsNFs of CUR for another 10 days, whereas the control group (CON) received standard rodent feed and water (Fig. 5A).

gut microbiota = test: 16S rRNA gene sequencing of gut microbiota in VAN-induced mice; assay type: in vivo, C57BL/6 mice; details: heat map-cluster and qPCR analysis
From the text: Faecal microbial genomic DNA was isolated and quantified as described elsewhere. Universal primers were employed to facilitate the amplification of the V3 and V4 domains of the 16S rRNA gene. The obtained amplicons were normalized, aligned to create the sequencing library, and sequenced on an Illumina MiSeq (San Diego, USA). The raw data of 16S rRNA gene sequences were filtered based on high error probability (>0.01) and analyzed by QIIME version (1.9.1). We generated OTUs at an identity threshold of 97 % using UPARSE (version 7.0.1001). NMDS plots were developed using PAST version 2.17 [44]. Heatmap profiles were constructed using R Studio software version 3.6.1. To examine the differentially abundant biomarkers between the different groups, LEfSe analysis was performed. Spearman correlational studies were performed to assess the correlations between VAN-induced inflammation-related parameters and gut bacteria and metabolites.

[5] = Storage stability of UsNFs in MQW over 180 days at 37 °C; assay type: physicochemical; details: 37 ± 1 °C
Procedure: The release kinetics of CUR from the UsNFs was also measured for 24 h in simulated gastric fluid (SGF; pH 2.5) and simulated intestinal fluid (SIF; pH 7.0) at 37 ± 1 °C (Fig. 2F). […] Additionally, the stability of UsNFs, which were dissolved at a concentration of 2 mg/mL in MQW, was also tested over 180 days at a temperature of 37 ± 1 °C (Fig. 2G and H). […] The autoxidation, hydrolysis, and degradation-induced content loss of CUR is a significant issue.

[6] = male, C57BL/6J, mouse, CUR in plasma, n = 6
[7] = male, C57BL/6J, mouse, plasma, n = 6

CUR retained [1]: less than 10%
Cmax ([3]; CUR in plasma, n = 6): 7.126 ± 0.317 ng/mL
AUC(0-inf) [3, 6]: 10.4 ± 0.683 ng·h/mL
AUC(0-t) [3, 6]: 7.68 ± 0.218 ng·h/mL
Tmax [3, 7]: 30 min
half-life [3, 7]: 64.6 ± 8.22 min
k el ([3]; male, C57BL/6J, mouse, plasma, n = 6, read-out: Ke (converted)): 5.25e-05 s⁻¹
Cmax ([3]; male, C57BL/6J, mouse, plasma, po, CUR in plasma, n = 6, read-out: Cmax): ~7.13 ng/mL
Bioavailability ([3]; relative to free-CUR, n = 6): 100.00 ± 29.388%
CUR content remaining after storage [5]: 27%
CUR degradation during storage [5]: over 73%
SMILES: COc1cc(/C=C/C(=O)CC(=O)/C=C/c2ccc(O)c(OC)c2)ccc1O [free-CUR, curcumin]
Final body weight or relative liver weight compared to normal control ([2]; 25 mg/kg and 50 mg/kg): no significant differences
Final body weight ([2]; 25 mg/kg): 22.02 ± 0.15 g
Liver weight ([2]; 25 mg/kg): 1.06 ± 0.036 g
Rel. liver weight ([2]; 25 mg/kg): 4.81 ± 0.11 Liver wt/100 g b.wt
Final body weight ([2]; 50 mg/kg): 21.6 ± 0.19 g
Liver weight ([2]; 50 mg/kg): 1.05 ± 0.022 g
Rel. liver weight ([2]; 50 mg/kg): 4.86 ± 0.23 Liver wt/100 g b.wt
Final body weight ([2]; 75 mg/kg): 16.2 ± 0.21 g
Liver weight ([2]; 75 mg/kg): 1.19 ± 0.038 g
Rel. liver weight ([2]; 75 mg/kg): 7.34 ± 0.16 Liver wt/100 g b.wt
TEER change of cell monolayer (Caco-2 cell monolayer): kept the TEER steady
Colon length [4]: no significant decrease
MDA levels [4]: only partially diminished
Restoring effect on VAN-altered GM (gut microbiota): did not show any significant restoring effects
